Converted amounts (≈) assume the structure as drawn.
Conditions: buffer; pH 7.4; 200.0 µM

Structure (SMILES)	solubility kinetic
CCn1c(C(O)c2cc(OC)c(OC)c(OC)c2)nc2ccccc21 (stereo not given)	47.7 µg/mL (≈ 139 µM)
CCOC(=O)c1c(N)sc2c1CCCC2=O	34.7 µg/mL (≈ 145 µM)
CCc1nc2sc3c(Cl)ncnc3c2c2c1CCCC2	< 0.2 µg/mL
CC(C)CC(C)NC(=O)c1ccc(C(F)(F)F)cc1 (stereo not given)	4.9 µg/mL (≈ 17.9 µM)
COc1ccc(NC(=O)Cc2c(Cl)cccc2Cl)cn1	6.2 µg/mL (≈ 19.9 µM)
Nc1nc(-c2cc(Cl)cc(Cl)c2OC(F)F)cs1	2.3 µg/mL (≈ 7.39 µM)
O=C(CCC(=O)c1cccs1)NC1CCCCCC1	25.6 µg/mL (≈ 91.6 µM)
COc1cccc(-c2ccc3c(N)c(C(=O)NC4CC4)sc3n2)c1	15.1 µg/mL (≈ 44.5 µM)
CC(Oc1ccc(Cl)cc1Cl)C(=O)Nc1ccc(OCC(=O)O)cc1 (stereo not given)	> 57.6 µg/mL
CCOc1ccc(C(=O)N2CCN(c3ncccn3)CC2)cc1	42.3 µg/mL (≈ 135 µM)
COC(=O)/C(C#N)=C/c1ccc(C)o1	20.7 µg/mL (≈ 108 µM)
Cn1c(=O)c2cnc(-c3ccc(C(F)(F)F)cc3)nc2n(C)c1=O	< 0.2 µg/mL
CN1CCN(S(=O)(=O)Cc2ccc(Cl)cc2)CC1	33.8 µg/mL (≈ 117 µM)
C/C(=C/C#N)Nc1ccc(C)cc1	> 25.8 µg/mL
CCNC(=O)COC(=O)Cc1ccc(Cl)cc1Cl	> 43.5 µg/mL
Cc1ccc(NS(=O)(=O)c2ccc(C(=O)NCc3ccc(S(N)(=O)=O)cc3)cc2)cc1	51.7 µg/mL (≈ 113 µM)
N#CC1=C(N)Oc2c(ccc3cccnc23)C1c1ccccc1 (stereo not given)	9.8 µg/mL (≈ 32.7 µM)
CCOC(=O)CN1C(=O)C(=O)N(Cc2c(F)cccc2Cl)C1=O	45.6 µg/mL (≈ 133 µM)

Structure (SMILES)	solubility kinetic
C/C(CC(=O)NCCN1CCOCC1)=N\NC(=O)c1ccncc1	> 50 µg/mL
CC(C)CNC1CCS(=O)(=O)C1.Cl (stereo not given)	> 34.2 µg/mL
COc1ccc(C(=O)N2CCC(C(=O)c3c(C)cc(C)cc3C)CC2)cc1	31.4 µg/mL (≈ 85.9 µM)
CCCCn1c(=O)c(C(=O)Nc2ccccc2N)c(O)c2ccccc21	< 0.3 µg/mL
C[N+]1(C)[C@@H]2CC[C@H]1CC(OC(=O)C(CO)c1ccccc1)C2.O=[N+]([O-])[O-] (stereo not given in full)	> 55 µg/mL
COC(=O)c1ccc(C(=S)NCC2(N(C)C)CCCCC2)cc1	45.6 µg/mL (≈ 136 µM)
CCOc1ccccc1C(=O)NC(C(=O)NCCc1ccccn1)C(C)C (stereo not given)	> 55.4 µg/mL
CCOc1ccc(NC(=O)CC(Cc2cc(C)cc(C)c2)C(=O)O)cc1 (stereo not given)	> 53.3 µg/mL
CN(C(=O)c1ccco1)c1nc(-c2ccc(F)cc2)cs1	< 0.3 µg/mL
Nc1nc(N)n(-c2ccccc2)c(=Nc2ccccc2)n1	> 41.7 µg/mL
NS(=O)(=O)c1ccc(CCNc2ccc(C(F)(F)F)cn2)cc1	48.1 µg/mL (≈ 139 µM)
O=C1CN(O)C(c2ccccc2)=c2cc(Cl)ccc2=N1	37.9 µg/mL (≈ 132 µM)
O=c1c2cc(Cl)cc(Cl)c2nc2n1CCC2	35 µg/mL (≈ 137 µM)
CN(C(=O)c1c[nH]c(=O)cc1C(F)(F)F)c1ccc(Cl)c(Cl)c1	40.8 µg/mL (≈ 112 µM)
O=CN1CCN(C(=S)Nc2ccc(OC(F)F)cc2)CC1	> 47.3 µg/mL
CC(CN1CCOCC1)OC(=O)c1ccc(Cl)cc1Cl.Cl (stereo not given)	48.9 µg/mL
Clc1ccccc1Nc1nc(-c2ccncc2)nc2ccccc12	0.8 µg/mL (≈ 2.4 µM)

Further lines, results first:

solubility kinetic	Structure (SMILES)
> 54.7 µg/mL	O=S(=O)(NC1CCN(Cc2ccccc2)CC1)c1ccc(Cl)cc1
40.8 µg/mL (≈ 125 µM)	O=C(CN1CCN(c2ccccc2F)CC1)NCc1ccccc1
0.8 µg/mL (≈ 2.57 µM)	COC(=O)c1ccc(N2CCN(c3ccccc3)CC2)c(N)c1
3.1 µg/mL (≈ 11 µM)	CCc1ccccc1NC(=O)c1cc(-c2ccco2)on1
> 47.9 µg/mL	CCC(NC(=O)c1cncc(Br)c1)c1ccccc1 (stereo not given)
18.5 µg/mL (≈ 84.4 µM)	CCCC(=O)Nc1ccc2c(c1)COC2=O
50.2 µg/mL (≈ 145 µM)	O=S(=O)(NCCNc1nccc(C(F)(F)F)n1)c1ccccc1
11.9 µg/mL (≈ 25 µM)	COc1cccc(N2CCN(c3ccc(S(=O)(=O)N4CCN(C)CC4)cc3[N+](=O)[O-])CC2)c1
2.9 µg/mL (≈ 10.9 µM)	O=C(CC1CCCCC1)NCc1ccccc1Cl
> 52.8 µg/mL	O=C(O)c1ccc(S(=O)(=O)c2ccc([N+](=O)[O-])cc2[N+](=O)[O-])cc1
> 33.9 µg/mL	Cc1ccccc1CC(=O)Nc1cccnc1
23.2 µg/mL (≈ 67.8 µM)	O=C(COc1cccnc1[N+](=O)[O-])Nc1c(Cl)cccc1Cl
> 38.3 µg/mL	CS(=O)(=O)N1Cc2ccccc2CC1C(=O)O (stereo not given)
> 39.6 µg/mL	CC1([N+](=O)[O-])COC2(OC1)C(=O)Nc1ccccc12 (stereo not given)
1.6 µg/mL (≈ 5.03 µM)	COc1ccc(-c2cc(C(=O)NC3CC3)c3ccccc3n2)cc1
> 32.3 µg/mL	Cc1ccc(C(=O)NCc2ccco2)cc1
2.8 µg/mL (≈ 9.78 µM)	CCC(=O)c1c[nH]c(C(=O)NCc2ccccc2OC)c1
< 0.7 µg/mL	COc1cc(/C=C/[N+](=O)[O-])ccc1OC(=O)/C=C/c1ccc(F)cc1
> 49.4 µg/mL	CC(=O)N1CCN(c2ccccc2NC(=O)c2cccs2)CC1
0.8 µg/mL (≈ 2.77 µM)	O=C(Nc1cccc(Cl)c1)c1cc(-c2ccco2)on1
> 40.6 µg/mL	COc1ccccc1N1CCN(c2cnccn2)CC1
> 43.6 µg/mL	Cl.c1ccc2c(N3CCOCC3)c3c(nc2c1)CCC3
35.8 µg/mL (≈ 110 µM)	CCc1ccc(S(=O)(=O)NC2CC(C)(C)NC(C)(C)C2)cc1
> 55 µg/mL	O=C(NC1CCS(=O)(=O)C1)c1cc(-c2ccccc2)nc2ccccc12 (stereo not given)
> 42.2 µg/mL	O=C(O)c1ccccc1Nc1cccc(C(F)(F)F)c1

solubility kinetic	Structure (SMILES)
42.2 µg/mL (≈ 141 µM)	COc1ccccc1OCCn1c(=O)n(C)c2ccccc21
1.4 µg/mL (≈ 4.33 µM)	CC(=O)c1c(C)[nH]c(C(=O)NCCc2c[nH]c3ccccc23)c1C
7.3 µg/mL (≈ 32.1 µM)	N#Cc1c(-c2ccccc2)nc2n1CCS2
> 42.8 µg/mL	Cc1ccc(SCC(=O)NC(C)c2ccccc2)cc1 (stereo not given)
6.8 µg/mL (≈ 19.8 µM)	O=C(N[C@@H](Cc1ccccc1)C(=O)NC1CC1)c1ccc(Cl)cc1
42.3 µg/mL (≈ 128 µM)	Cc1c(NC(=O)c2ccc(-c3ccccc3)cc2)cccc1C(=O)O
> 45 µg/mL	Cc1nn(CC(=O)c2ccc(Cl)s2)c(C)c1[N+](=O)[O-]
> 37.7 µg/mL	CC(=O)Nc1cccc(-c2nc3ccccc3[nH]2)c1
15 µg/mL (≈ 36.1 µM)	COc1cccc(C(=O)Nc2ccccc2N2CCN(C(=O)c3ccccc3)CC2)c1
18.3 µg/mL (≈ 67.9 µM)	CCOc1ccc(S(=O)(=O)NC2CCCC2)cc1
39.6 µg/mL (≈ 141 µM)	COc1ccc(CC(=O)N2CCc3ccccc3C2)cc1
> 49.7 µg/mL	CN(Cc1cccs1)C(=O)COc1cccc2c1OC(C)(C)C2
38.3 µg/mL (≈ 123 µM)	CCOc1ccc(/C=C(\C)C(=O)c2c(C)cc(C)[nH]c2=O)cc1
34.9 µg/mL (≈ 145 µM)	C#CCOc1ccccc1/C=C1/C(=O)ON=C1C
14.2 µg/mL (≈ 76.7 µM)	CN(c1ccccc1)c1ncccn1
53.5 µg/mL (≈ 150 µM)	COCCNC(=O)c1ccccc1NC(=O)c1cccc([N+](=O)[O-])c1C
7.9 µg/mL (≈ 26.6 µM)	COc1ccc(NC(=O)c2cc3ccccc3o2)cc1OC
> 50.3 µg/mL	OCC1(Cc2ccccc2)CCN(Cc2cc3ccccc3o2)CC1
36.1 µg/mL (≈ 121 µM)	CCN1CCN(C(=O)C(=O)c2c(C)[nH]c3ccccc23)CC1
> 41 µg/mL	O=C(O)C1CCCN1S(=O)(=O)c1ccc(F)cc1 (stereo not given)
1.9 µg/mL (≈ 8.59 µM)	O=C(c1ccccc1)c1c[nH]c2ccccc12
> 66.4 µg/mL	CC1(c2ccccc2Cl)NC(=O)N(CC(=O)Nc2ccc(N3CCOCC3)cc2)C1=O (stereo not given)
37.6 µg/mL (≈ 146 µM)	Cc1ccc2c(c1)C1(OCCCO1)C(=O)N2CC#N
> 49.7 µg/mL	CNC(=O)CSc1nc2ccccc2c(=O)n1C1CCCCC1
< 0.8 µg/mL	COc1ccc(O)c(/C=C2/SC(=S)N(Cc3ccccc3)C2=O)c1

— PubChem BioAssay AID1996
